Results on two compounds are retold here after patent publication US10844077B2, “Thiazolyl-containing compounds for treating proliferative diseases” (Dana-Farber Cancer Institute, Inc., priority 2014, dated 2020).

Values joined by “and” are separate entries in the source; they are usually repeats but may differ in a detail not shown here. Identical values can stand only once.

Assay in all cases: KINATIV assay of compounds I-3 and I-9, lysate directly labeled with ATP-biotin probe (no GF)
Common to all, as to format: cell-based

For test [1], the target named is kinases in BCWM.1 cells (Homo sapiens, UniProt O14936). The conditions noted are these: CASK; Lys1; 1 μM; no GF. The method, then:
(§1) The cells were harvested and lysed. […] Bound kinases were identified and quantitated by ACTIVX as described in Patricelli et al., Biochemistry, 2007, 46(2): 350-358. The compounds were tested in duplicates against duplicate or quadruplicate control samples.

Test [2] has as its target kinases in BCWM.1 cells (Homo sapiens, UniProt O14965). The method, then: as §1
Test [3] has as its target kinases in BCWM.1 cells (Homo sapiens, UniProt P06493). Particulars: CDC2; Protein Kinase Domain; 1 μM; no GF. The method, then: as §1
The target of test [4] is kinases in BCWM.1 cells (Homo sapiens, UniProt P23458). The conditions noted are these: JAK1 domain2; Activation Loop; 1 μM; no GF. The method, then:
as §1

The target in test [5] is kinases in BCWM.1 cells (Homo sapiens, UniProt P24941). Particulars: CDK2; Lys2; 1 μM; no GF. The method, then:
as §1

The target of test [6] is kinases in BCWM.1 cells (Homo sapiens, UniProt P31749). The conditions noted are these: AKT1; ATP Loop; 1 μM; no GF. The method, then:
as §1

Test [7] deals with kinases in BCWM.1 cells (Homo sapiens, UniProt P41240). Particulars: CSK; Activation Loop; 1 μM; no GF. The method, then:
as §1

Test [8] has as its target kinases in BCWM.1 cells (Homo sapiens, UniProt P46734). The conditions noted are these: MAP2K3; Lys2; 1 μM; no GF. The method, then: as §1
The target of test [9] is kinases in BCWM.1 cells (Homo sapiens, UniProt P49841). Particulars: GSK3B; Lys2; 1 μM; no GF. The method, then:
as §1

For test [10], the target named is kinases in BCWM.1 cells (Homo sapiens, UniProt P50613). Particulars: CDK7; Lys2; 1 μM; no GF. The method, then:
as §1

Test [11] concerns the target kinases in BCWM.1 cells (Homo sapiens, UniProt P51451). Particulars: BLK; Activation Loop; 1 μM; no GF. The method, then: as §1
Test [12] concerns the target kinases in BCWM.1 cells (Homo sapiens, UniProt Q04759). Particulars: PKCt; ATP Loop; 1 μM, 90 min; no GF. The method, then:
as §1

The target in test [13] is kinases in BCWM.1 cells (Homo sapiens, UniProt Q06187). Particulars: BTK; Activation Loop; 1 μM; no GF. The method, then:
as §1

For test [14], the target named is kinases in BCWM.1 cells (Homo sapiens, UniProt Q12851). The conditions noted are these: GCK; Lys2; 1 μM; no GF. The method, then: as §1
Test [15] concerns the target kinases in BCWM.1 cells (Homo sapiens, UniProt Q13188). Particulars: MST2; Lys1; 1 μM; no GF. The method, then:
as §1

Test [16] addresses kinases in BCWM.1 cells (Homo sapiens, UniProt Q13233). The conditions noted are these: MAP3K1; Lys2; 1 μM; no GF. The method, then:
as §1

For test [17], the target named is kinases in BCWM.1 cells (Homo sapiens, UniProt Q14680). Particulars: MELK; Lys2; 1 μM; no GF. The method, then: as §1
The target of test [18] is kinases in BCWM.1 cells (Homo sapiens, UniProt Q15831). Particulars: LKB1; Lys2; 1 μM; no GF. The method, then: as §1
The target in test [19] is kinases in BCWM.1 cells (Homo sapiens, UniProt Q16659). Particulars: Erk3; Lys2; 1 μM; no GF. The method, then:
as §1

Test [20] has as its target kinases in BCWM.1 cells (Homo sapiens, UniProt Q5TCX8). The conditions noted are these: MLK4; Lys2; 1 μM; no GF. The method, then: as §1
Test [21] addresses kinases in BCWM.1 cells (Homo sapiens, UniProt Q96L34). Particulars: MARK4; Lys2; 1 μM; no GF. The method, then:
as §1

Test [22] addresses kinases in BCWM.1 cells (Homo sapiens, UniProt Q9Y6E0). Particulars: MST3; Lys2; 1 μM; no GF. The method, then: as §1
For test [23], the target named is kinases in BCWM.1 cells (Homo sapiens, UniProt O00506). The conditions noted are these: YSK1; Lys1; 1 μM, 90 min; no GF. The method, then: as §1
The target in test [24] is kinases in BCWM.1 cells (Homo sapiens, UniProt O94806). Particulars: PKD3; Lys1; 1 μM, 90 min; no GF. The method, then: as §1
Test [25] concerns the target kinases in BCWM.1 cells (Homo sapiens, UniProt P17612). The conditions noted are these: PKACa; Lys2; 1 μM, 90 min; no GF. The method, then: as §1
Test [26] concerns the target kinases in BCWM.1 cells (Homo sapiens, UniProt P78356). The conditions noted are these: PIP4K2B; ATP; 1 μM, 90 min; no GF. The method, then:
as §1

Test [27] addresses kinases in BCWM.1 cells (Homo sapiens, UniProt Q02156). Particulars: PKCe; Lys2; 1 μM, 90 min; no GF. The method, then: as §1
For test [28], the target named is kinases in BCWM.1 cells (Homo sapiens, UniProt Q9C0K7). Particulars: STLK6; Lys1; 1 μM, 90 min; no GF. The method, then:
as §1

The target of test [29] is kinases in BCWM.1 cells (Homo sapiens, UniProt Q9UK32). The conditions noted are these: RSK4 domain1; Lys2; 1 μM, 90 min; no GF. The method, then: as §1

kinases in BCWM.1 cells (Homo sapiens, UniProt P50613), sequence (P50613 2-346 limits assumed): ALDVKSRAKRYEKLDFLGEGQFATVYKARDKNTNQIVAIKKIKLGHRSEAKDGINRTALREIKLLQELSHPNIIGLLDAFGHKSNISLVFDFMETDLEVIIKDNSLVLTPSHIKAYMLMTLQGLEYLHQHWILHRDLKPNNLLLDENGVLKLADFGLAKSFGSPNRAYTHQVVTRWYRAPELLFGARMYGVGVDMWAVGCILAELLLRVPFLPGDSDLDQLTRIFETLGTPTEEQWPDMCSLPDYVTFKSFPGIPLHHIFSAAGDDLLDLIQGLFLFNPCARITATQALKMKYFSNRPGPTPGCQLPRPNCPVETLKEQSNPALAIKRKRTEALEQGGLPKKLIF
kinases in BCWM.1 cells (Homo sapiens, UniProt Q06187), sequence (Q06187 2-659 limits assumed): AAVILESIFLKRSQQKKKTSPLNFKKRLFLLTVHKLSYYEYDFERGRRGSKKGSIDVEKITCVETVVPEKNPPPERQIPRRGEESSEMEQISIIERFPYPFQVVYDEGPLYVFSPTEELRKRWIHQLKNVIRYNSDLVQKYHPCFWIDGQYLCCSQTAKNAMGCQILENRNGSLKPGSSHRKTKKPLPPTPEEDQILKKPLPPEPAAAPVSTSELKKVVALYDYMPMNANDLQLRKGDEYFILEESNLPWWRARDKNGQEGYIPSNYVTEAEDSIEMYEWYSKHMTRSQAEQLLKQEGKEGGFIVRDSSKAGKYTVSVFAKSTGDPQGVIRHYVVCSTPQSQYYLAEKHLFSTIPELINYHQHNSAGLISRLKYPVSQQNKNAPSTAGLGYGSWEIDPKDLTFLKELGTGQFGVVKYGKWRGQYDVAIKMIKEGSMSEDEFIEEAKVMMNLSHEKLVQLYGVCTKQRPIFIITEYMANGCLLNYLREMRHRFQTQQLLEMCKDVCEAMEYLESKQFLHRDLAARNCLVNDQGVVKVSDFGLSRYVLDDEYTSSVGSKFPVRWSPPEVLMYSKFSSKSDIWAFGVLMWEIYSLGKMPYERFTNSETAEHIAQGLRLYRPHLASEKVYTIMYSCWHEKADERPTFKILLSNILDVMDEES
kinases in BCWM.1 cells (Homo sapiens, UniProt P41240), sequence (P41240 2-450 limits assumed): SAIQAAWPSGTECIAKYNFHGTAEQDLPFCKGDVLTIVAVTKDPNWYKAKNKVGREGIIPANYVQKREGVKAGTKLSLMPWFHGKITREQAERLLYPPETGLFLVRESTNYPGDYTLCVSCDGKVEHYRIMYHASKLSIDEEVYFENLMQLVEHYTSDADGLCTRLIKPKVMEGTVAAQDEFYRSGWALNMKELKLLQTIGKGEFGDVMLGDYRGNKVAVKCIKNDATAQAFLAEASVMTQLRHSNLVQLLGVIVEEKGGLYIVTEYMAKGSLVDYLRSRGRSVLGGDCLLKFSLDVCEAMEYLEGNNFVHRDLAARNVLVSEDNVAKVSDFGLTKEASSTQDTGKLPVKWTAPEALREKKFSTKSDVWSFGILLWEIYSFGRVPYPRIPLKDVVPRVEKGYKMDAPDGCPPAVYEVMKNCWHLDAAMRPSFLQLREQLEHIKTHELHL
kinases in BCWM.1 cells (Homo sapiens, UniProt Q13233), sequence (Q13233 2-1512 limits assumed): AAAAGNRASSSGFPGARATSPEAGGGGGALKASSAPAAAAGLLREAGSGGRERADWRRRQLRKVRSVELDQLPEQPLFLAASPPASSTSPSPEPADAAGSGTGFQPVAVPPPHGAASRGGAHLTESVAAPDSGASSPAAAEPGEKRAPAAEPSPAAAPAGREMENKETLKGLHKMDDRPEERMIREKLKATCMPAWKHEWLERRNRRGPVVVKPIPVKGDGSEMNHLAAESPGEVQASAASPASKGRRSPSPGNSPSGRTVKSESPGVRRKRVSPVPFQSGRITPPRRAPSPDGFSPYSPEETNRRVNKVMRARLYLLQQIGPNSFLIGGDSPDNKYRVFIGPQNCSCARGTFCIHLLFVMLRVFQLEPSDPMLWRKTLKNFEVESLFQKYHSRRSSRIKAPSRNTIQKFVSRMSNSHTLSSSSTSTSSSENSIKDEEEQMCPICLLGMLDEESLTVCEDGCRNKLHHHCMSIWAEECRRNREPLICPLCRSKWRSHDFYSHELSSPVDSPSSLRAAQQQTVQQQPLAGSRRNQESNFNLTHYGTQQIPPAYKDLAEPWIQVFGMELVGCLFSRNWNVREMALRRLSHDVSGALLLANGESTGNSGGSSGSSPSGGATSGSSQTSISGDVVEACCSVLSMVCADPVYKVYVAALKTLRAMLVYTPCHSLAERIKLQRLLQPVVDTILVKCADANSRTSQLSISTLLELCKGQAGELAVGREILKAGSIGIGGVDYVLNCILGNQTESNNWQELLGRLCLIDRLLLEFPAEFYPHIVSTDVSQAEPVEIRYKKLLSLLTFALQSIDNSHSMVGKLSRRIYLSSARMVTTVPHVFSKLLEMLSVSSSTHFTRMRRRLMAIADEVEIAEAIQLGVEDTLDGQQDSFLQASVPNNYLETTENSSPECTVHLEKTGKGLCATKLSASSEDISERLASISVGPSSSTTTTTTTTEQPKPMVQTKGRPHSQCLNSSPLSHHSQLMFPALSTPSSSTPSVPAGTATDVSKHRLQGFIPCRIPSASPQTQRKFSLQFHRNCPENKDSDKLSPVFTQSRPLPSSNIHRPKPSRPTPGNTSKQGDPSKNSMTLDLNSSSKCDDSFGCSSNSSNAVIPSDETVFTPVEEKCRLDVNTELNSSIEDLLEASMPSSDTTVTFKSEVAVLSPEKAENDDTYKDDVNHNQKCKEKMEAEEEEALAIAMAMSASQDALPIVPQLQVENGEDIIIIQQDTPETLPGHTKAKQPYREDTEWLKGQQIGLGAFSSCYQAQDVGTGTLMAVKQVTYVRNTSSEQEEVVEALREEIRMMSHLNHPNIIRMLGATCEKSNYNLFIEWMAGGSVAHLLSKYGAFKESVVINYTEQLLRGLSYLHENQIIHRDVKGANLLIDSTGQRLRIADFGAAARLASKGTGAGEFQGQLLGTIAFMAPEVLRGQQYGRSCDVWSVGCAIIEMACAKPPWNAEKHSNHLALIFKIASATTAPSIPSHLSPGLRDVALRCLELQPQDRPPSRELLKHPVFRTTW
kinases in BCWM.1 cells (Homo sapiens, UniProt P78356), sequence (P78356 2-416 limits assumed): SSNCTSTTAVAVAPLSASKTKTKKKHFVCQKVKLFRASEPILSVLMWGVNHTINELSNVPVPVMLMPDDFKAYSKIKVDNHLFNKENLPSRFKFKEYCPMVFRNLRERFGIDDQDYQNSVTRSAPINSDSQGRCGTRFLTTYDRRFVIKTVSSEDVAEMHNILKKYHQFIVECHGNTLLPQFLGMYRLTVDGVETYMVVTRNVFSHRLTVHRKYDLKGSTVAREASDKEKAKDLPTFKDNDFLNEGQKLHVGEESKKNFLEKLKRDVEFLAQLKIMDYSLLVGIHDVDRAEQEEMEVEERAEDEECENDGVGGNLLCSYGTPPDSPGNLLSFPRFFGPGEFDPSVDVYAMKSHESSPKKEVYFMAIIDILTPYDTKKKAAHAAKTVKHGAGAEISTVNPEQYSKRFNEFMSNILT
kinases in BCWM.1 cells (Homo sapiens, UniProt P51451), sequence (P51451 2-505 limits assumed): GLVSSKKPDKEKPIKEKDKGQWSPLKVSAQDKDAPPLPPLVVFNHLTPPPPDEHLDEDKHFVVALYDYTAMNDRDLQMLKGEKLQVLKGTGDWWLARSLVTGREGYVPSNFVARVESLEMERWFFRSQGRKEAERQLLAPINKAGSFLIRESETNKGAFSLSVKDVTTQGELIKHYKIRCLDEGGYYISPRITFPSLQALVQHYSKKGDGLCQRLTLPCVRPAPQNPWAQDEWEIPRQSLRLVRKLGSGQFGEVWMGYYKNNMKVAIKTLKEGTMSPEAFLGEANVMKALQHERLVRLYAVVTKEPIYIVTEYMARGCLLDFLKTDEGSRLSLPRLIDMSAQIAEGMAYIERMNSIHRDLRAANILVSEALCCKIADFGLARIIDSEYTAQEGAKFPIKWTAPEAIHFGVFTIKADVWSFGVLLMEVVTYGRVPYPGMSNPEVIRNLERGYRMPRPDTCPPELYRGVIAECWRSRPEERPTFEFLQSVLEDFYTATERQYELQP

As to `C=CC(=O)N1CC[C@H](Nc2nccc(Nc3ncc(C(=O)Nc4c(C)cccc4C)s3)n2)C1` [Example I-3], the “% change of MS signal compared to control sample” value (shortened to “% change of MS signal”) was −1% and 0.5% in [1]; 12.7% in test [2]; −0.7% and −4.3% in test [3]; −2.9% and −1.6% in test [4]; 3.6% and 1.2% in test [5]; −20.4% and −21.9% in test [6]. Also, the “% change of MS signal” value in [7] is 36% and 60.3%; in test [8], 15.6% and 5.8%; in test [9] it was 9.4% and −0.5%; in test [10], 8.9% and 5.1%; in test [11], over 96%; in test [12], −5.2%. Moreover, the “% change of MS signal” value in [13] is 94.7% and 95.2%; in test [14], 18.1% and 17.8%; in [15] it was −12.1% and −18%; in test [16], 22.5% and 18.8%; in [17], −12.1% and −10.6%; in test [18], −11.2% and −8.7%. Moreover, the “% change of MS signal” value in [19] was 23.2% and 23.8%; in test [20], −3.8% and −11.8%; in [21] it was −8.5% and −8.7%; in test [22] it was −2% and −3.8%.

`CCC(=O)N1CC[C@H](Nc2nccc(Nc3ncc(C(=O)Nc4c(C)cccc4C)s3)n2)C1` [Example I-9]: the “% change of MS signal” value is recorded as −11.5% in test [23]; −15.2% in test [24]; −9.8% in [25]; 17.6% in test [26]; −38.2% in [27]; 7.2% in [28]. Besides, in [29], the “% change of MS signal” value stood at 9.1%.
